Drawing on ChEMBL document CHEMBL3044727, “Syntheses, spectral, crystallographic, antimicrobial, and antioxidant studies of few Mannich bases” (2012), this text covers zone of inhibition, Activity and inhibition for ten compounds.

Holding throughout (assay type): functional
For test [1], the system named is Salmonella typhi. The test can be described thus: Antimicrobial activity against Salmonella enterica subsp. enterica serovar Typhi MTCC 3917 at 40 ug after 24 hr by streak plate method. To be noted: MTCC 3917, 24 h, read-out: IZ.
In test [2] the test system is Bacillus subtilis. The test can be described thus: Antimicrobial activity against Bacillus subtilis MTCC 4905 at 60 ug after 24 hr by streak plate method. To be noted: MTCC 4905, 24 h, read-out: IZ.
Test [3] relates to Bacillus subtilis. In words: Antimicrobial activity against Bacillus subtilis MTCC 4905 at 40 ug after 24 hr by streak plate method. To be noted: MTCC 4905, 24 h, read-out: IZ.
The test system of test [4] is Salmonella typhi. In words: Antimicrobial activity against Salmonella enterica subsp. enterica serovar Typhi MTCC 3917 at 20 ug after 24 hr by streak plate method. To be noted: MTCC 3917, 24 h, read-out: IZ.
Test [5] concerns Escherichia coli. In words: Antimicrobial activity against Escherichia coli MTCC 3261 at 40 ug after 24 hr by streak plate method. To be noted: MTCC 3261, 24 h, read-out: IZ.
Test [6] concerns Escherichia coli. The test can be described thus: Antimicrobial activity against Escherichia coli MTCC 3261 at 60 ug after 24 hr by streak plate method. To be noted: MTCC 3261, 24 h, read-out: IZ.
Test [7] concerns Escherichia coli. The test can be described thus: Antimicrobial activity against Escherichia coli MTCC 3261 at 20 ug after 24 hr by streak plate method. To be noted: MTCC 3261, 24 h, read-out: IZ.
Test [8] deals with Salmonella typhi. The test can be described thus: Antimicrobial activity against Salmonella enterica subsp. enterica serovar Typhi MTCC 3917 at 60 ug after 24 hr by streak plate method. To be noted: MTCC 3917, 24 h, read-out: IZ.
Test [9] deals with Bacillus subtilis. In words: Antimicrobial activity against Bacillus subtilis MTCC 4905 at 20 ug after 24 hr by streak plate method. To be noted: MTCC 4905, 24 h, read-out: IZ.
The test system of test [10] is Radical scavenging activity. In words: Antioxidant activity assessed as DPPH radical scavenging activity at 50 ug. (In general: The DPPH test is a chemical assay of radical scavenging.)
Test [11] has as its system Radical scavenging activity. The test can be described thus: Antioxidant activity assessed as DPPH radical scavenging activity.
Test [12] has as its system Radical scavenging activity. The test can be described thus: Antioxidant activity assessed as DPPH radical scavenging activity at 75 ug.
A short description of test [13]: Antioxidant activity assessed as inhibition of linoleic acid peroxidation at 100 ug by FTC method.
The nature of test [14]: Antioxidant activity assessed as inhibition of linoleic acid peroxidation at 125 ug by FTC method.
The subject of test [15] is Aspergillus fumigatus. The test can be described thus: Antimicrobial activity against Aspergillus fumigatus MTCC 6594 at 40 ug after 48 hr by streak plate method. To be noted: MTCC 6594, 48 h, read-out: IZ.
Test [16] has as its system Radical scavenging activity. The test can be described thus: Antioxidant activity assessed as DPPH radical scavenging activity at 25 ug.
Test [17] concerns Aspergillus fumigatus. In words: Antimicrobial activity against Aspergillus fumigatus MTCC 6594 at 60 ug after 48 hr by streak plate method. To be noted: MTCC 6594, 48 h, read-out: IZ.
Test [18] has as its system Radical scavenging activity. In words: Antioxidant activity assessed as DPPH radical scavenging activity at 125 ug.
Test [19] in a line: Antioxidant activity assessed as inhibition of linoleic acid peroxidation at 50 ug by FTC method.
The subject of test [20] is Aspergillus oryzae. In words: Antimicrobial activity against Aspergillus oryzae MTCC 3782 at 40 ug after 48 hr by streak plate method. To be noted: MTCC 3782, 48 h, read-out: IZ.
A short description of test [21]: Antioxidant activity assessed as inhibition of linoleic acid peroxidation by FTC method.
The nature of test [22]: Antioxidant activity assessed as inhibition of linoleic acid peroxidation at 75 ug by FTC method.
Test [23] concerns Aspergillus oryzae. In words: Antimicrobial activity against Aspergillus oryzae MTCC 3782 at 60 ug after 48 hr by streak plate method. To be noted: MTCC 3782, 48 h, read-out: IZ.
Test [24] relates to Radical scavenging activity. In words: Antioxidant activity assessed as DPPH radical scavenging activity at 100 ug.
Test [25] in a line: Antioxidant activity assessed as inhibition of linoleic acid peroxidation at 25 ug by FTC method.
The test system of test [26] is Aspergillus oryzae. In words: Antimicrobial activity against Aspergillus oryzae MTCC 3782 at 20 ug after 48 hr by streak plate method. To be noted: MTCC 3782, 48 h, read-out: IZ.

For the compound `CC1(C)S[C@@H]2[C@H](NC(=O)Cc3ccccc3)C(=O)N2[C@H]1C(=O)O` [PENICILLIN G], the zone of inhibition at 40 µg/disc with Salmonella typhi [1] was 24 mm; in the test on Bacillus subtilis [3] it was 26 mm; in the test with Escherichia coli [5] it was 30 mm. The zone of inhibition at 60 µg/disc was found to be 26 mm in the test with Bacillus subtilis [2], 31 mm in the test with Escherichia coli [6] and 24 mm in the test with Salmonella typhi [8]. The zone of inhibition at 20 µg/disc in the test with Salmonella typhi [4] turned out to be 20 mm; with Escherichia coli [7] it was 24 mm; in the test on Bacillus subtilis [9], 25 mm.

One may read the inhibition as the relative decrease from the control value, in per cent. Consider `O=C(NC(c1ccccc1)c1cc2ccccc2cc1O)NC(c1ccccc1)c1cc2ccccc2cc1O` (stereo unspecified), for which the zone of inhibition at 40 µg/disc with Salmonella typhi [1] is 21 mm; in the test on Bacillus subtilis [3] it was 4 mm; in the test on Escherichia coli [5], 8 mm; with Aspergillus fumigatus [15], 6 mm; in the test on Aspergillus oryzae [20] it was 8 mm. Besides, the zone of inhibition at 60 µg/disc in the test with Bacillus subtilis [2] was found to be 3 mm; with Escherichia coli [6], 9 mm; with Aspergillus fumigatus [17], 11 mm; in the test on Salmonella typhi [8], 23 mm; in the test on Aspergillus oryzae [23], 12 mm. Further, the zone of inhibition at 20 µg/disc in the test with Salmonella typhi [4] was determined as 20 mm; with Bacillus subtilis [9] it was 4 mm. In addition, the Activity is 27% in test [10]; “Dose-dependent effect” in test [11]; 35% in [12]; 28% in test [16]; 40% in [18]; 37% in [24]. The inhibition in [13] was 19%; in test [14], 24%; in test [19] it was 17%; in test [21], “Dose-dependent effect”; in test [22] it was 18.3%; in test [25] it was 17%.

As to `O=C1CCC(=O)N1CNc1ccccn1`, the zone of inhibition at 60 µg/disc in the test on Bacillus subtilis [2] is 8 mm; in the test with Escherichia coli [6], 12 mm; in the test with Aspergillus fumigatus [17] it was 13 mm; in the test on Aspergillus oryzae [23], 15 mm. Also, the values for the zone of inhibition at 40 µg/disc in the test on Bacillus subtilis [3], in the test with Escherichia coli [5] and in the test on Aspergillus fumigatus [15] were 5 mm, 7 mm and 7 mm, respectively. In addition, the Activity is 18% in test [10]; “Dose-dependent effect” in test [11]; 22% in [12]; 17% in test [16]; 36% in test [18]; 27% in test [24]. Also, the inhibition in [13] was 20%; in [14], 21%; in test [19], 19%; in [21] it was “Dose-dependent effect”; in [22], 19%; in [25], 18%.

As for `O=C1c2ccccc2C(=O)N1CNc1ccccc1`, the zone of inhibition at 20 µg/disc in the test on Aspergillus oryzae [26] was 7 mm; in the test with Salmonella typhi [4], 3 mm. The zone of inhibition at 40 µg/disc with Salmonella typhi [1] came to 5 mm; in the test with Bacillus subtilis [3], 9 mm; in the test with Escherichia coli [5], 3 mm; in the test on Aspergillus oryzae [20] it was 7 mm. Moreover, the zone of inhibition at 60 µg/disc was 14 mm in the test on Bacillus subtilis [2]; 8 mm in the test on Escherichia coli [6]; 2 mm with Aspergillus fumigatus [17]; 5 mm in the test on Salmonella typhi [8]; 4 mm with Aspergillus oryzae [23]. Besides, the Activity in [10] is 19%; in test [11], “Dose-dependent effect”; in test [12], 20%; in test [16], 15%; in test [18] it was 24%; in [24] it was 22%. Moreover, the inhibition was 15% in test [13]; 16% in test [14]; 13% in [19]; “Dose-dependent effect” in test [21]; 15.6% in test [22]; 11% in test [25].

Take `O=C1CCC(=O)N1CNc1ccccc1`: the Activity in test [10] is 14%; in test [12], 18%; in [16] it was 10%; in test [18], 23%; in test [24] it was 20%. Also, the inhibition was found to be 19% in test [13]; 20% in test [14]; 15% in test [19]; 16% in test [22]; 12% in test [25].

Consider `O=C1CCC(=O)N1C(Nc1ccccc1)c1ccccc1` (stereo unspecified), for which, in the test with Aspergillus oryzae [26], the zone of inhibition at 20 µg/disc came to 3 mm. For the same compound, the zone of inhibition at 40 µg/disc came out at 6 mm in the test with Salmonella typhi [1], 10 mm with Bacillus subtilis [3], 2 mm with Escherichia coli [5] and 12 mm in the test with Aspergillus oryzae [20]. For the same compound, the zone of inhibition at 60 µg/disc in the test with Bacillus subtilis [2] came to 17 mm; with Escherichia coli [6], 16 mm; with Aspergillus fumigatus [17] it was 6 mm; with Salmonella typhi [8], 11 mm; with Aspergillus oryzae [23], 15 mm. Also, the Activity was 14% in [10]; “Dose-dependent effect” in [11]; 17% in test [12]; 9% in [16]; 25% in test [18]; 18% in test [24]. Also, the inhibition is 20% in test [13]; 22% in test [14]; 17% in [19]; “Dose-dependent effect” in test [21]; 19% in [22]; 16% in [25].

Consider `O=C1O[C@H]([C@@H](O)CO)C(O)=C1O`, for which the Activity was determined as 54% in test [10]; 57% in [12]; 53% in [16]; 59% in test [18]; 58% in [24]. Besides, the inhibition in [13] is 35%; in test [14] it was 37%; in test [19], 27%; in test [22], 31.2%; in test [25], 27.2%.

VITAMIN E: the Activity in test [10] was found to be 47%; in [12], 49%; in test [16], 45%; in test [18] it was 51%; in test [24] it was 50%. Also, the inhibition in [13] stood at 29%; in test [14], 33%; in test [19] it was 26%; in test [22], 27%; in [25] it was 23%.

In the case of `O=C1CCC(=O)N1C(Nc1ccccn1)c1ccccc1` (stereo unspecified), the zone of inhibition at 20 µg/disc with Aspergillus oryzae [26] amounted to 12 mm. The zone of inhibition at 40 µg/disc in the test on Salmonella typhi [1] was 1 mm; in the test on Bacillus subtilis [3] it was 7 mm; in the test on Escherichia coli [5] it was 4 mm; in the test on Aspergillus oryzae [20], 10 mm. In addition, the zone of inhibition at 60 µg/disc in the test on Bacillus subtilis [2] came to 12 mm; in the test with Escherichia coli [6], 7 mm; with Aspergillus fumigatus [17], 3 mm; in the test on Salmonella typhi [8], 6 mm; with Aspergillus oryzae [23], 9 mm. For the same compound, the Activity was 19% in [10]; “Dose-dependent effect” in test [11]; 20% in [12]; 16% in test [16]; 25% in test [18]; 23% in [24]. The inhibition was 19% in test [13]; 21% in [14]; 17% in test [19]; “Dose-dependent effect” in test [21]; 18% in [22]; 15% in test [25].

Regarding `Oc1cc2ccccc2cc1Cn1cccc1`, the zone of inhibition at 40 µg/disc with Salmonella typhi [1] was 22 mm; in the test with Bacillus subtilis [3], 14 mm; in the test with Escherichia coli [5], 4 mm; in the test with Aspergillus oryzae [20], 10 mm. Besides, the zone of inhibition at 60 µg/disc with Bacillus subtilis [2] is 16 mm; in the test with Escherichia coli [6] it was 14 mm; with Aspergillus fumigatus [17], 3 mm; in the test with Salmonella typhi [8], 23 mm; in the test with Aspergillus oryzae [23] it was 14 mm. In the test with Salmonella typhi [4], the zone of inhibition at 20 µg/disc came out at 22 mm. Besides, the Activity was 33% in test [10]; “Dose-dependent effect” in [11]; 35% in test [12]; 32% in test [16]; 38% in [18]; 36% in [24]. For the same compound, the inhibition in test [13] is 17%; in test [14], 19%; in test [19] it was 13%; in [21], “Dose-dependent effect”; in [22] it was 16.2%; in test [25] it was 10%.
